“And” between values parts separate entries of the source, which are not always exact repeats. Equal entries are not always repeated. Numbered stars: 1 amine (or outer) side, 2 acyl side, 3 side chain; on linkers, the order of the positions; unused ones are H or OH. Square brackets hold non-standard residues; d marks the D form. Ends that are not written are not given here. Benzoyl(5-NH,2-NO2) = O=C(c1cc(N[*:1])ccc1[N+](=O)[O-])[*:2]; 2Abz = Nc1ccccc1C(=O)O
Experiments:
Type in all cases: biochemical, human
[1] = system: proteolytic enzymes specific/characteristic of kidney cancer in urine; experiment: Absorbance measurement of substrate hydrolysis in individual urine samples (kidney cancer and healthy subjects); conditions: for Results of absorbance analysis (rate of hydrolysis of the substrate): 405 nm, 37° C., 60 minutes, pH 8.0, triplicate
Protocol: (§1) The activity of the novel compounds according to the invention was studied in a group of 20 subjects diagnosed with kidney cancer using the representative compound according to the invention. […] The remaining compounds according to the invention are characterized by the analogous mechanism of action. For this purpose, the representative compound according to the invention, ABZ^1-Leu^2-Pro^3-Gly^4-Thr^5-ANB^6—NH2, was dissolved in dimethyl sulfoxide (at a concentration of 0.5 mg/mL) and then 50 μL of the solution was mixed with 120 μL of a buffer (200 mM Tris-HCl, pH 8.0) and 80 μL of urine from a subject suffering from kidney cancer. The measurement was performed on a 96-well plate designed for measuring absorbance and each sample was analysed in triplicate at the temperature of 37° C. The duration of the measurement was 60 minutes. During the measurement, the wavelength characteristic for the chromophore (ANB-NH2) being released was monitored at the wavelength 405 nm (range 380-430 nm).
The observed magnitude of increase in absorbance in time is different for each of the examined samples.
Such a result may be due to the difference in the activity as well as the amount of enzymes responsible for the enzymatic cleavage (proteolysis). […] The result indicates the absence of proteolytic enzymes specific/characteristic of kidney cancer.

[2] = system: proteolytic enzymes specific/characteristic of kidney cancer in urine; experiment: as above
[3] = system: proteolytic enzymes in urine; experiment: Dependence of substrate hydrolysis on reaction pH; conditions: FIG. 4
Protocol: Furthermore, measurements concerning the dependence of the proteolytic activity of the representative compound according to the invention on the reaction pH were performed.

[4] = system: proteolytic enzymes in urine from patients with different cancers; experiment: Selectivity of substrate cleavage in urine samples by cancer type; conditions: testicular, prostate, pancreatic, biliary duct, lung, ovary, rectum cancer; mixture of 20 samples each; FIG. 3
Excerpt: Arabic numerals indicate the numbers of given cancer types. The samples tested for each type of cancer were derived from 20 different patients for each of the tested cancers. The results are mean values for given cancer types.
as §1
Furthermore, the dependence of the cleavage selectivity of the substrate, i.e. the compound according to the invention, on the cancer type being examined, was studied. […]

[5] = system: proteolytic enzymes in urine from a person diagnosed with kidney cancer; experiment: RP HPLC analysis of substrate cleavage in urine from a person with kidney cancer; conditions: randomly selected urine from a person diagnosed with kidney cancer; FIG. 1

Question: For “ABZ-Leu-Pro-Gly-Thr-ANB-NH2 ([2Abz]LPGT-{Benzoyl(5-NH,2-NO2)-NH2}) [chromogenic/fluorogenic peptide; ABZ is 2-aminobenzoic acid, ANB-NH2 is amide of 5-amino-2-nitrobenzoic acid]”, which “Cleavage of the substrate in urine samples from persons suffering from kidney cancer” value ([1]; all samples N1-N20) is on record?
Answer: Its value is “underwent cleavage”.

Question: What about the “Efficiency of substrate cleavage in samples N3 and N6” value ([1]; compared with samples N5 or N20, FIG. 2, Table 1) of the same substance?
Answer: Its value is “less efficiently”.

Question: And the “Results of absorbance analysis (rate of hydrolysis of the substrate)” value (from here on “Results of absorbance analysis”) ([1]; urine sample 21, healthy subject)?
Answer: The value was 0.000000.

Question: What about the “Results of absorbance analysis” value ([1]; urine sample 22, healthy subject) of the same substance?
Answer: The value was 0.000000.

Question: And the “Results of absorbance analysis” value ([1]; urine sample 23, healthy subject)?
Answer: Its value is 0.000000.

Question: And the “Results of absorbance analysis” value ([1]; urine sample 24, healthy subject)?
Answer: Its value is 0.000000.

Question: And the “Results of absorbance analysis” value ([1]; urine sample 25, healthy subject)?
Answer: The value was 0.000000.

Question: What about the “Results of absorbance analysis” value ([1]; urine sample 26, healthy subject) of the same substance?
Answer: The value was 0.000000.

Question: And the “Results of absorbance analysis” value ([1]; urine sample 27, healthy subject)?
Answer: The value was 0.000000.

Question: And the “Results of absorbance analysis” value ([1]; urine sample 28, healthy subject)?
Answer: The value was 0.000000.

Question: What about the “Results of absorbance analysis” value ([1]; urine sample 29, healthy subject) of the same substance?
Answer: Its value is 0.000000.

Question: And the “Results of absorbance analysis” value ([1]; urine sample 30, healthy subject)?
Answer: Its value is 0.000000.

Question: What about the “Results of absorbance analysis” value ([1]; urine sample 31, healthy subject) of the same substance?
Answer: Its value is 0.000000.

Question: What about the “Results of absorbance analysis” value ([1]; urine sample 32, healthy subject) of the same substance?
Answer: Its value is 0.000000.

Question: What about the “Results of absorbance analysis” value ([1]; urine sample 33, healthy subject) of the same substance?
Answer: Its value is 0.000000.

Question: What about the “Results of absorbance analysis” value ([1]; urine sample 34, healthy subject) of the same substance?
Answer: The value was 0.000000.

Question: What about the “Results of absorbance analysis” value ([1]; urine sample 36, healthy subject) of the same substance?
Answer: The value was 0.000000.

Question: And the “Results of absorbance analysis” value ([1]; urine sample 37, healthy subject)?
Answer: The value was 0.000000.

Question: And the “Results of absorbance analysis” value ([1]; urine sample 38, healthy subject)?
Answer: The value was 0.000000.

Question: And the “Results of absorbance analysis” value ([1]; urine sample 39, healthy subject)?
Answer: Its value is 0.000000.

Question: What about the “Results of absorbance analysis” value ([1]; urine sample 40, healthy subject) of the same substance?
Answer: Its value is 0.000000.

Question: And the “Results of absorbance analysis” value ([1]; urine sample N1, subject with kidney cancer)?
Answer: The value was 0.027 and 0.019 and 0.023.

Question: What about the “Results of absorbance analysis” value ([1]; urine sample N2, subject with kidney cancer) of the same substance?
Answer: Its value is 0.021 and 0.014 and 0.019.

Question: What about the “Results of absorbance analysis” value ([1]; urine sample N4, subject with kidney cancer) of the same substance?
Answer: The value was 0.032 and 0.029 and 0.03.

Question: What about the “Results of absorbance analysis” value ([1]; urine sample N5, subject with kidney cancer) of the same substance?
Answer: Its value is 0.034 and 0.032 and 0.029.

Question: And the “Results of absorbance analysis” value ([1]; urine sample N6, subject with kidney cancer)?
Answer: The value was 0.0033 and 0.0027 and 0.003.

Question: And the “Results of absorbance analysis” value ([1]; urine sample N7, subject with kidney cancer)?
Answer: The value was 0.02 and 0.021 and 0.018.

Question: What about the “Results of absorbance analysis” value ([1]; urine sample N9, subject with kidney cancer) of the same substance?
Answer: Its value is 0.031 and 0.03 and 0.035.

Question: What about the “Results of absorbance analysis” value ([1]; urine sample N10, subject with kidney cancer) of the same substance?
Answer: The value was 0.0026 and 0.0037 and 0.0031.

Question: And the “Results of absorbance analysis” value ([1]; urine sample N11, subject with kidney cancer)?
Answer: Its value is 0.012 and 0.01 and 0.015.

Question: What about the “Results of absorbance analysis” value ([1]; urine sample N12, subject with kidney cancer) of the same substance?
Answer: The value was 0.0098 and 0.0111 and 0.012.

Question: What about the “Results of absorbance analysis” value ([1]; urine sample N13, subject with kidney cancer) of the same substance?
Answer: The value was 0.004 and 0.0051 and 0.0045.

Question: What about the “Results of absorbance analysis” value ([1]; urine sample N14, subject with kidney cancer) of the same substance?
Answer: The value was 0.0036 and 0.0033 and 0.0032.

Question: What about the “Results of absorbance analysis” value ([1]; urine sample N15, subject with kidney cancer) of the same substance?
Answer: The value was 0.0043 and 0.0037 and 0.004.

Question: What about the “Results of absorbance analysis” value ([1]; urine sample N16, subject with kidney cancer) of the same substance?
Answer: Its value is 0.0039 and 0.0037 and 0.0035.

Question: What about the “Results of absorbance analysis” value ([1]; urine sample N17, subject with kidney cancer) of the same substance?
Answer: The value was 0.013 and 0.0135 and 0.0136.

Question: What about the “Results of absorbance analysis” value ([1]; urine sample N18, subject with kidney cancer) of the same substance?
Answer: Its value is 0.004 and 0.0032 and 0.0038.

Question: And the “Results of absorbance analysis” value ([1]; urine sample N19, subject with kidney cancer)?
Answer: Its value is 0.0038 and 0.004 and 0.0037.

Question: What about the “Results of absorbance analysis” value ([1]; urine sample N20, subject with kidney cancer) of the same substance?
Answer: The value was 0.031 and 0.026.

Question: And the “Increase in absorbance / hydrolysis in urine samples from healthy persons” value ([2]; samples 21 to 40, without a cancer diagnosis)?
Answer: The value was “does not lead to an increase in absorbance”.

Question: What about the “Results of absorbance analysis” value ([2]; urine sample 35, healthy subject, 405 nm, 37° C., 60 minutes, pH 8.0, triplicate) of the same substance?
Answer: The value was 0.000000.

Question: And the “Dependence of the hydrolysis level of the substrate on pH” value [3]?
Answer: The value was “maximum activity at alkaline pH”.

Question: What about the “Cleavage of the substrate in samples from patients with other cancers” value [4] of the same substance?
Answer: The value was “is not subject to cleavage”.

Question: What about the “Cleavage products by RP HPLC analysis” value [5] of the same substance?
Answer: The value was “cleaves into the peptide fragment ABZ-Leu-Pro-Gly-Thr-OH and the chromophore group of the compound (ANB-NH2)”.

From US20250270617A1, “Compound - diagnostic marker for kidney cancer, method for detecting enzymatic activity, method for diagnosis of kidney cancer, kit comprising the compound, uses of the compound and method for the treatment of kidney cancer” (URTESTE S.A., priority 2022, published 2025)
